Source: paper PMC7849180 (Frontiers in Pharmacology, 2020)
Counter-ions that a name gives are not always drawn. Like-named read-outs stand apart in the source and are kept apart here.

Experiments:
[1] = system: myelofibrosis; conditions: cited from earlier work
[2] = system: myelofibrosis; conditions: ref Momelotinib extension study; cited from earlier work
[3] = system: myelofibrosis; design: method as in RA Abdelrahman et. al.; conditions: ref RA Abdelrahman et. al., cited from earlier work; for CR / Clinical Improvement (CI) / PR: 2013 IWG-MRT criteria; for patients with symptom improvement: 2013 IWG-MRT-ELN criteria
[4] = system: myelofibrosis; design: method as in COMFORT-II; conditions: Week 48, ref COMFORT-II; cited from earlier work
[5] = system: myelofibrosis; design: method as in Ruxolitinib Phase I/II trials; conditions: within 3 months, 153 MF patients, ref Ruxolitinib Phase I/II trials; cited from earlier work
[6] = system: polycythemia vera; conditions: cited from earlier work
[7] = system: myelofibrosis; design: method as in COMFORT-I; conditions: ref COMFORT-I; cited from earlier work
[8] = system: primary cells harboring the JAK2V617F mutation in patients with polycythemia vera; assay: Colony forming of erythroid hematopoietic cells of polycythemia vera patients; assay type: cell-based, human; conditions: 9 patients
Excerpt: (§1) Suzhou Zelgen Biopharmaceuticals Co., Ltd. Jaktinib Hydrochloride Tablets Chemical Drug Class 1 New Drug and ZG0178. However, the inhibitory effect on the activity of Ba/F3-EpoR cell line […]
(§2) respectively. Obviously, this selective inhibition is associated with the aberrant expression of JAK2 in Ba/F3-EpoR-JAK2V617F mutant cells, and the degree of ZG0163 inhibition on JAK-STAT signaling pathway in this cell line. […]
(§3) cells, and the effects of ZG0163 was similar to those of positive control compounds, […]
(§4) In Vitro Inhibitory Effect of ZG0128 on Cell Lines Transfected with Oncogenes and Primary Blood Cells in Patients with Polycythemia Vera
(§5) In vitro cell culture assay was used to determine whether compound ZG0128 […]
(§6) cell line harboring a JAK2V617F mutation, and 8 HCD-57 cell lines stably transfected with oncogenic mutations JAK2V617F, MPLW515L, KITD816V, NPM-ALK, FLT3-ITD, FLT3D835H, FLT3D835Y and KRasG12V, respectively. In addition, study the inhibitory effects of compound ZG0128 on the growth of hematopoietic progenitor cells in patients with polycythemia vera.
(§7) 9 cell lines were similar to those of positive control drug ZG0192. At the sub-micromolar concentration, both compounds ZG0128 and ZG0192 were able to […]
(§8) the growth of HCD-57 cells transfected with oncogenic mutations JAK2V617F, […]
(§9) spectrum inhibitory effect on tyrosine kinases. […]

[9] = target: T1, CYP2C9 (Homo sapiens, UniProt P11712); assay type: in vitro ADME; conditions: microsomes
T1 construct: using mixed human liver microsomes and human primary hepatocytes as the in vitro; from tissue; host or cells: mixed (pooled) human liver microsomes
T1 sequence (P11712 whole entry): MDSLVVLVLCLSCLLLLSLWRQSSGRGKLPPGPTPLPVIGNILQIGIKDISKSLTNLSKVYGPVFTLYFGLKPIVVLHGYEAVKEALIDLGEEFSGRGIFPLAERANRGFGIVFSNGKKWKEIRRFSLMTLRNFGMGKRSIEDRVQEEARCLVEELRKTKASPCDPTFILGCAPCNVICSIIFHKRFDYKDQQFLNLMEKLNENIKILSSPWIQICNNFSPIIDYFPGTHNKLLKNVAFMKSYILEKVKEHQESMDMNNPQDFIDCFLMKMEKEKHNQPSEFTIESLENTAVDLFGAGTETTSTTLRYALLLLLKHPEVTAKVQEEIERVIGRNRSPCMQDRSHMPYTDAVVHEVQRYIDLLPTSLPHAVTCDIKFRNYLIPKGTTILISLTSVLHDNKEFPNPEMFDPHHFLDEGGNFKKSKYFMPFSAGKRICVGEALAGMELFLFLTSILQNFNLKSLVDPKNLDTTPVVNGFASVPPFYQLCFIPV

[10] = target: T2, CYP2C19 (Homo sapiens, UniProt P33261); assay type: in vitro ADME; conditions: microsomes
T2 construct: using mixed human liver microsomes and human primary hepatocytes as the in vitro; from tissue; host or cells: mixed (pooled) human liver microsomes
T2 sequence (P33261 whole entry): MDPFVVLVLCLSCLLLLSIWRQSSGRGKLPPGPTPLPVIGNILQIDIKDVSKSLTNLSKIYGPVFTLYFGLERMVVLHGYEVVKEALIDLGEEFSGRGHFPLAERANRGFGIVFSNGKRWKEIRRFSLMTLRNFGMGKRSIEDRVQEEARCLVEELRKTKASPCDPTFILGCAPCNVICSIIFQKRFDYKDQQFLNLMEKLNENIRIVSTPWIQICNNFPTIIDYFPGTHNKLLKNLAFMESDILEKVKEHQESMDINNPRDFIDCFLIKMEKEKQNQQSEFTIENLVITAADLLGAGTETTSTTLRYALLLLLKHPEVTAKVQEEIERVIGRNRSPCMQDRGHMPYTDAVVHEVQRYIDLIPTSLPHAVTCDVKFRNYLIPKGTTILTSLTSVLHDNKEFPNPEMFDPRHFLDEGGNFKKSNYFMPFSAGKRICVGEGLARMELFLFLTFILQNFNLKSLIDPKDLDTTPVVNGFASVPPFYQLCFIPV

[11] = target: T3, CYP3A4 (Homo sapiens, UniProt P08684); assay: CYP inhibition, mixed human liver microsomes; assay type: in vitro ADME
T3 construct: using mixed human liver microsomes and human primary hepatocytes as the in vitro; from tissue; host or cells: mixed (pooled) human liver microsomes
T3 sequence (P08684 whole entry): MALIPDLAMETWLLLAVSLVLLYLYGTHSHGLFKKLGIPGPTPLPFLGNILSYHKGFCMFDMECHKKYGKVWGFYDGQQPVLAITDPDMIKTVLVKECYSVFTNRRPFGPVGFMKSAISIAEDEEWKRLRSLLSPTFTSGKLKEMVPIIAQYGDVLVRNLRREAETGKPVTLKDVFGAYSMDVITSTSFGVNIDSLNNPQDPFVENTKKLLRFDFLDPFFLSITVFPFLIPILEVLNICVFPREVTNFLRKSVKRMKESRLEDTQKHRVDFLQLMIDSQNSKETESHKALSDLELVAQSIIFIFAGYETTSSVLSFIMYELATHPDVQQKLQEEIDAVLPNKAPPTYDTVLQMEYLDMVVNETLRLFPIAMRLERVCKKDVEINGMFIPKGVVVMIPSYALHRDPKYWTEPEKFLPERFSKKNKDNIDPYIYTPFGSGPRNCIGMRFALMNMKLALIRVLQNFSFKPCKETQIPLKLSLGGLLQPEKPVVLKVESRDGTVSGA

[12] = target: T4, CYP2C8 (Homo sapiens, UniProt P10632); assay type: in vitro ADME; conditions: microsomes
T4 construct: using mixed human liver microsomes and human primary hepatocytes as the in vitro; from tissue; host or cells: mixed (pooled) human liver microsomes
T4 sequence (P10632 whole entry): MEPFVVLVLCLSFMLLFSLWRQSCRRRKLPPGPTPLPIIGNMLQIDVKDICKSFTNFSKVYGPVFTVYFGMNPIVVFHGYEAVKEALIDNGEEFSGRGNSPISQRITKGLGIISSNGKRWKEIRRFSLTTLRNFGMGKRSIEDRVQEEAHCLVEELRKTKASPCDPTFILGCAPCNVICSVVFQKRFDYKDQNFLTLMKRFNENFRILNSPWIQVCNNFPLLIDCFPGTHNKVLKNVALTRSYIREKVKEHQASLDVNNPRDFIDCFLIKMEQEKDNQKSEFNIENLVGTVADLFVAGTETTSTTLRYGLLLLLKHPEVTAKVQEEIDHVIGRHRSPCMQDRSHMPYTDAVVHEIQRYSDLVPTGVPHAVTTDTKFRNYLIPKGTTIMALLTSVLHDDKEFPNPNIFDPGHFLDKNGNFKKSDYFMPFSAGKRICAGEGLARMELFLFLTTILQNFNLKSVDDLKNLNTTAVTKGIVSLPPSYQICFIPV

[13] = system: J53Z1 cells harboring the JAK2V617F mutation and HCD-57 cells transfected with oncogenic mutations; assay: Growth of cell lines transfected with oncogenes; assay type: cell-based
Excerpt: as §1, §2, §3, §4, §5, §6, §7, §8, §9

[14] = target: T5, CYP2B6 (Homo sapiens, UniProt P20813); assay type: in vitro ADME; conditions: microsomes
T5 construct: using mixed human liver microsomes and human primary hepatocytes as the in vitro; from tissue; host or cells: mixed (pooled) human liver microsomes
T5 sequence (P20813 whole entry): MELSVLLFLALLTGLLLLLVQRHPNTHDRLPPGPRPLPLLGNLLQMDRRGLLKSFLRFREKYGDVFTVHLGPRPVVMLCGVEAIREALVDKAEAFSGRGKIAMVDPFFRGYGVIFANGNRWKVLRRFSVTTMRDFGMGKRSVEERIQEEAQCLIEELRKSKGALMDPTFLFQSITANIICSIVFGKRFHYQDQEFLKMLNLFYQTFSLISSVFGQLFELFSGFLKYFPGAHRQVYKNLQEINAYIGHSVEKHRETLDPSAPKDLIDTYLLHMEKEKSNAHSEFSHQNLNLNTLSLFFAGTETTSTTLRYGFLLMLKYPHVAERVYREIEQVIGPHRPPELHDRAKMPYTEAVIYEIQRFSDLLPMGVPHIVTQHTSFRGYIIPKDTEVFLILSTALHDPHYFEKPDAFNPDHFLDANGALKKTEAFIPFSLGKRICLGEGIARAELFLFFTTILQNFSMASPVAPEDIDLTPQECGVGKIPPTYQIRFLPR

[15] = target: T6, CYP2D6 (Homo sapiens, UniProt P10635); assay type: in vitro ADME; conditions: microsomes
T6 construct: using mixed human liver microsomes and human primary hepatocytes as the in vitro; from tissue; host or cells: mixed (pooled) human liver microsomes
T6 sequence (P10635 whole entry): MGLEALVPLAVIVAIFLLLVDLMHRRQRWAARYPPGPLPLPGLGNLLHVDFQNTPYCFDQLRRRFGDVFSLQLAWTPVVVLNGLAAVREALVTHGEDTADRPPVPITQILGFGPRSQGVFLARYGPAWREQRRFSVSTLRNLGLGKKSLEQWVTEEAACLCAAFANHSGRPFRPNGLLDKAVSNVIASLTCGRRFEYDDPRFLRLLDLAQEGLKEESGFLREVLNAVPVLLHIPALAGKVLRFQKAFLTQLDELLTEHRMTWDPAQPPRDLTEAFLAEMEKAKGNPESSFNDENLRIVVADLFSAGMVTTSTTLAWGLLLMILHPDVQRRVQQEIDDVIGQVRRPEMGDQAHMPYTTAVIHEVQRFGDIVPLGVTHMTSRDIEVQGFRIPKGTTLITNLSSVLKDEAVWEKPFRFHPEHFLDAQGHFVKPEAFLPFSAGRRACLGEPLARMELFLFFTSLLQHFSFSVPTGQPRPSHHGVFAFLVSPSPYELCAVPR

[16] = target: T7, CYP1A2 (Homo sapiens, UniProt P05177); assay type: in vitro ADME; conditions: microsomes
T7 construct: using mixed human liver microsomes and human primary hepatocytes as the in vitro; from tissue; host or cells: mixed (pooled) human liver microsomes
T7 sequence (P05177 whole entry): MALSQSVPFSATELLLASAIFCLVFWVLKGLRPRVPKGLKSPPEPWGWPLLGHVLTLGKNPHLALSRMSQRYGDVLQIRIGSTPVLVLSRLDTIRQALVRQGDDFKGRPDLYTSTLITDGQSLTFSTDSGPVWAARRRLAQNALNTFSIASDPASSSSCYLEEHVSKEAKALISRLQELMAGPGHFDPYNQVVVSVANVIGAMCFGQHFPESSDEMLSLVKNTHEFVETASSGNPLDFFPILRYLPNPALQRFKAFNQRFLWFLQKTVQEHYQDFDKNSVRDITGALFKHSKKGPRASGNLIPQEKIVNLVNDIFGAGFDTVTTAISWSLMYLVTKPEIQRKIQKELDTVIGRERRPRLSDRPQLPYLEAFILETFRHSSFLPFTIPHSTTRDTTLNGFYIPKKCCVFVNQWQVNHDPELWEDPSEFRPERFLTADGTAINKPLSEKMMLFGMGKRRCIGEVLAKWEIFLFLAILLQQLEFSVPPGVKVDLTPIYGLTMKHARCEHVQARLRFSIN

[17] = 150 mg bid, ref Momelotinib Phase I/II
[18] = 150 mg qd, ref Momelotinib Phase I/II
[19] = 300 mg qd, ref Momelotinib Phase I/II
[20] = Grade 1, ref Momelotinib Phase I/II
[21] = Grade 2, ref Momelotinib Phase I/II
[22] = Grade 3, ref Momelotinib Phase I/II
[23] = Grade 4, ref Momelotinib Phase I/II
[24] = Total (n=166), ref Momelotinib Phase I/II
[25] = all cases (n=166), ref Momelotinib Phase I/II

## N#CCNC(=O)c1ccc(-c2ccnc(Nc3ccc(N4CCOCC4)cc3)n2)cc1 [Momelotinib]
[1]; [17]
  Average Reduction in Spleen Volume at Month 6: -46%
  Hemoglobin Elevation of 2 g/dL or Above (8 Weeks): 14%
  IWG-MRT Anemia Response Rate: 36%
  Spleen Response: 38%
  Transfusion Independence Rate (12 Weeks): 57%
[1]; [18]
  Average Reduction in Spleen Volume at Month 6: -36%
  Hemoglobin Elevation of 2 g/dL or Above (8 Weeks): 11%
  IWG-MRT Anemia Response Rate: 48%
  Spleen Response: 32%
  Transfusion Independence Rate (12 Weeks): 63%
[1]; [19]
  Average Reduction in Spleen Volume at Month 6: -38%
  Hemoglobin Elevation of 2 g/dL or Above (8 Weeks): 8%
  IWG-MRT Anemia Response Rate: 55%
  Spleen Response: 39%
  Transfusion Independence Rate (12 Weeks): 75%
[1]; [20]
  ALP Elevation: 5%
  ALT Elevation: 9%
  AST Elevation: 9%
  Amylase Elevation: 7%
  Anemia, drug-related AE: 2%
  Bilirubin Elevation: 7%
  Creatinine Elevation: 5%
  Diarrhea, drug-related AE: 18%
  Headache, drug-related AE: 14%
  Leukopenia, drug-related AE: 2%
  Lipase Elevation: 8%
  Nausea, drug-related AE: 20%
  Neutropenia, drug-related AE: < 1%
  Peripheral Neuropathy, drug-related AE: 25%
  Thrombocytopenia, Baseline Platelet > 150 x 109/L (n=97): 18%
  Thrombocytopenia, drug-related AE: 14%
  Vertigo, drug-related AE: 22%
[1]; [21]
  ALP Elevation: 1%
  ALT Elevation: 3%
  AST Elevation: 2%
  Amylase Elevation: 2%
  Anemia, drug-related AE: 2%
  Bilirubin Elevation: 2%
  Creatinine Elevation: 3%
  Diarrhea, drug-related AE: 4%
  Leukopenia, drug-related AE: < 1%
  Lipase Elevation: < 1%
  Nausea, drug-related AE: < 1%
  Neutropenia, drug-related AE: 2%
  Peripheral Neuropathy, drug-related AE: 2%
  Thrombocytopenia, Baseline Platelet > 150 x 109/L (n=97): 1%
  Thrombocytopenia, drug-related AE: 8%
  Vertigo, drug-related AE: 1%
[1]; [22]
  ALP Elevation: 1%
  ALT Elevation: 2%
  AST Elevation: 1%
  Anemia, drug-related AE: 2%
  Headache, drug-related AE: 1%
  Lipase Elevation: 4%
  Neutropenia, drug-related AE: 1%
  Thrombocytopenia, Baseline Platelet > 150 x 109/L (n=97): 9%
  Thrombocytopenia, drug-related AE: 17%
[1]; [23]
  Leukopenia, drug-related AE: < 1%
  Neutropenia, drug-related AE: 2%
  Thrombocytopenia, Baseline Platelet > 150 x 109/L (n=97): 1%
  Thrombocytopenia, drug-related AE: 7%
[1]; [24]
  Hemoglobin Elevation of 2 g/dL or Above (8 Weeks): 13%
  IWG-MRT Anemia Response Rate: 48%
  Transfusion Independence Rate (12 Weeks): 68%
[1]; [25]
  Average Reduction in Spleen Volume at Month 6: -38%
  Spleen Response: 37%
[1]; n=33, ref Momelotinib Phase I/II
  transfusion dependent patients with non-transfusion dependent duration of at least 12 weeks: 70%
[1]; ref Momelotinib Phase I/II
  patients with improvement of anemia: 59%
  symptom controlled: bone pain: 33%
  symptom controlled: cough: 29%
  symptom controlled: fever: 100%
  symptom controlled: night sweat: 57%
  symptom controlled: pruritus: 52%
[2]
  First Dose Effect: hypotension: 5%
  First Dose Effect: transient dizziness: 10%
  Grade 3/4 thrombocytopenia: 30%
  median maintenance duration of anemia response: 1,042 days
  median spleen response duration: 785 days
  patients with anemia response: 53%
  patients with spleen response (IWG-MRT): 39%
[3]
  CR: 0 (0%) n (%)
  Clinical Improvement (CI): 34 (57%) n (%)
  PR: 1 (1.7%) n (%)
  patients with symptom improvement: 57%
  Anemia Response: 42 (19; 45%) n (responses; %)
  Anemia Response in Transfusion-Dependent Patients: 32 (17; 53%) n (responses; %)
  Spleen Response: 57 (24; 42%) Evaluables (responses; %)
  anemia response rate: 45%
  spleen volume reduction response rate: 42%

## N#CC[C@H](C1CCCC1)n1cc(-c2ncnc3[nH]ccc23)cn1 [Ruxolitinib]
[4]
  patients with ≥35% reduction in spleen volume: 28%
[3]
  CR: 0 (0%) n (%)
  Clinical Improvement (CI): 9 (18%) n (%)
  PR: 0 (0%) n (%)
  patients with symptom improvement: 18%
  Anemia Response: 19 (2; 11%) n (responses; %)
  Anemia Response in Transfusion-Dependent Patients: 12 (2; 17%) n (responses; %)
  Spleen Response: 46 (7; 15%) Evaluables (responses; %)
  anemia response rate: 11%
  spleen volume reduction response rate: 15%
[5]
  patients with >50% reduction in spleen volume: 44%
[6]; Ruxolitinib group, ref RESPONSE study
  Thrombus, patients: 1
[6]; in vivo
  Herpes zoster infection: 6%
  herpes zoster incidence: 4.7%
[7]
  patients with ≥35% reduction in spleen volume: 41.9%

## N#CCNC(=O)c1ccc(-c2ccnc(Nc3ccc(N4CCOCC4)cc3)n2)cc1 [ZG0128, Jaktinib Dihydrochloride Monohydrate]
[8]
  IC50: 0.18 µM
[9]
  IC50: > 100 µM
[10]
  IC50: > 100 µM
[11]; microsomes
  IC50: > 100 µM
[11]; midazolam 1'-hydroxylation, read-out: IC50
  IC50: > 100 µM
[12]
  IC50: > 100 µM
[13]; J53Z1 and HCD-57 with JAK2V617F, MPLW515L, KITD816V, FLT3-ITD, FLT3D835H, FLT3D835Y, read-out: IC50, growth inhibition, range over cell lines
  IC50: 0.31 to 0.71 µM
[13]; transfected JAK2V617F cell lines, read-out: IC50
  IC50: 0.61 µM
[14]
  IC50: > 100 µM
[15]
  IC50: > 100 µM
[16]
  IC50: > 100 µM
